This is an account of results in patent US20050170392A1, “OAT3 transporters expressed in blood brain barrier cells” (priority 2004, published 2005).

One series addresses T1, OAT3 (Homo sapiens, UniProt Q8TCC7).
T1 sequence (Q8TCC7 1-542): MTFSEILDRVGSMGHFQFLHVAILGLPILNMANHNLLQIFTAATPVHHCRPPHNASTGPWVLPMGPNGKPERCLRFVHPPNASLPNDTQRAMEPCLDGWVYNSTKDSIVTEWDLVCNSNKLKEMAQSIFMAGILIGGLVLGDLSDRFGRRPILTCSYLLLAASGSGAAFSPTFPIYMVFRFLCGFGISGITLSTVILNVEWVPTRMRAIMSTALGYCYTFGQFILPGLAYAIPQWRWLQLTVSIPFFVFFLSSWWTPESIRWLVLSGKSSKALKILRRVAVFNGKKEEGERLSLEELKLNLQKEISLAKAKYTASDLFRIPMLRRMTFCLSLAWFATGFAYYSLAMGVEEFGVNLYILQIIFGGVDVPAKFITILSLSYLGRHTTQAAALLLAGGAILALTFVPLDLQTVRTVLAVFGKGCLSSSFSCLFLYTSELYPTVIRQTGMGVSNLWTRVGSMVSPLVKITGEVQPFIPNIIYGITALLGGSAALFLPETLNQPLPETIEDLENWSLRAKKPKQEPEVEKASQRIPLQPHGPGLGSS
As to conditions: cited from earlier work.

A further series concerns the target T2, PgP (Homo sapiens, UniProt P08183).
T2 construct: expressed in transfected cells; host or cells: MDCK cells
As to the kind of experiment: Cellular transwell monolayer efflux assay, MDCK cells transfected with TREx-PgP. The class given is in vitro ADME. On the procedure:
A third type of efflux transporter assay is the cellular transwell monolayer efflux assay. […] The cells form a polarized monolayer. The transwell dishes have apical and basolateral chambers that are separated by the filter membrane on which the polarized monolayer is situated. Assays are performed by placing a test compound in either the apical or basolateral chamber, followed by sampling the opposite chamber after a predetermined period of time such as 60-120 minutes and measuring the amount of the test compound. The test compound can be measured by methods such as radiolabel detection or LC-MS-MS analysis. Assays are performed in the presence and absence of an efflux transporter inhibitor or competitor. Efflux transporter inhibitors or competitors increase apical to basolateral transport and decrease basolateral to apical transport of compounds that are efflux transporter substrates. Apparent permeability (Papp) of test compounds is measured. […] Test compounds that generate ratios between 1.5 and 2.0 require additional testing to determine if they are efflux transporter substrates.
MDCK cells transfected with the tetracycline-inducible TREx-PgP expression vector were seeded on polycarbonate filter membranes in transwell dishes and grown for 3-5 days, yielding a polarized monolayer with tight junctions between cells. […] The left set of bars depicts apical to basolateral transport, while the right set of bars depicts basolateral to apical transport.

The mark [1] stands for this setting: 2.5 nM 3H-vinblastine, in the presence of 250 μM verapamil versus absence, FIG. 6.

T2 sequence (P08183 whole entry): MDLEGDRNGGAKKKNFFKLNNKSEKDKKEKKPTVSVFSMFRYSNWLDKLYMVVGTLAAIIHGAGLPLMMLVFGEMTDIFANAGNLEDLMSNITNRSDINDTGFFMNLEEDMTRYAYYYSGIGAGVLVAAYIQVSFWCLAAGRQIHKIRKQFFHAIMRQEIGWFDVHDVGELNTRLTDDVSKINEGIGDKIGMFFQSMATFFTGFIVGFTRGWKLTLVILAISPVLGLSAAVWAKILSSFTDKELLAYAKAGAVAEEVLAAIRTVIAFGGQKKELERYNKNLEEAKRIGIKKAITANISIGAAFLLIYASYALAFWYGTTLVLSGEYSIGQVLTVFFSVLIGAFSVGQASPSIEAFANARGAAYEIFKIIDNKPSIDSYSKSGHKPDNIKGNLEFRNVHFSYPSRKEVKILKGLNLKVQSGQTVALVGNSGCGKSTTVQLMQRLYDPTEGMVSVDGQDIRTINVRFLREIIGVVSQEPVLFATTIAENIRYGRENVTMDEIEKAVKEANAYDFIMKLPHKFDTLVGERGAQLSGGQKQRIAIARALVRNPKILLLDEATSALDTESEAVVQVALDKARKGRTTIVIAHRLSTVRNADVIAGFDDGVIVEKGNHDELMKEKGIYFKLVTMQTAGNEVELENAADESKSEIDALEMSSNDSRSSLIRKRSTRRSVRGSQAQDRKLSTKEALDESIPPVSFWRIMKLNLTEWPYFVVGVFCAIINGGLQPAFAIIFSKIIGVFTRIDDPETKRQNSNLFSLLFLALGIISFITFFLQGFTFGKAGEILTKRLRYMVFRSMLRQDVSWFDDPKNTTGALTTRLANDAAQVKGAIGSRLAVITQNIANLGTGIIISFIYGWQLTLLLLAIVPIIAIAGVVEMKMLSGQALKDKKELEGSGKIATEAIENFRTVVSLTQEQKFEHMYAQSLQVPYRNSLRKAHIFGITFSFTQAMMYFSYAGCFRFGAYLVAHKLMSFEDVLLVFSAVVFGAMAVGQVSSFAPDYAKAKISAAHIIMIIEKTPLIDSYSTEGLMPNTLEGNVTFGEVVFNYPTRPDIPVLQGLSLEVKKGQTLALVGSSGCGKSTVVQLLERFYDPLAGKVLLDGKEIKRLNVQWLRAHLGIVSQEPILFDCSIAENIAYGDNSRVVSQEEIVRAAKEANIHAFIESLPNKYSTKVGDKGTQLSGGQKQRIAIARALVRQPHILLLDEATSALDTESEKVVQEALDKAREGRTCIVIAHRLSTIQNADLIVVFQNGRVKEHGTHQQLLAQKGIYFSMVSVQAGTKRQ

`CC1(C)S[C@@H]2[C@H](NC(=O)Cc3ccccc3)C(=O)N2[C@H]1C(=O)O` [Benzylpennicillin]: the “Reported Affinity for OAT3” value on OAT3 was 0.3 mM.
Consider `C[C@]12CC[C@@H]3c4ccc(OS(=O)(=O)O)cc4CC[C@H]3[C@@H]1CCC2=O` [Estrone-3-sulphate], for which the “Reported Affinity for OAT3” value on OAT3 is 0.04 mM.
On to `C[C@@H]1Cc2c(Cl)cc(C(=O)N[C@@H](Cc3ccccc3)C(=O)O)c(O)c2C(=O)O1` [Ochratoxin A], for which the “Reported Affinity for OAT3” value at OAT3 is 0.05 mM.
On to `CCCN(CCC)S(=O)(=O)c1ccc(C(=O)O)cc1` [Probenecid], for which the “Reported Affinity for OAT3” value at OAT3 is given as 0.05 mM.
In the case of `CC[C@]1(O)C[C@@H]2CN(CCc3c([nH]c4ccccc34)[C@@](C(=O)OC)(c3cc4c(cc3OC)N(C)[C@H]3[C@@](O)(C(=O)OC)[C@H](OC(C)=O)[C@]5(CC)C=CCN6CC[C@]43[C@@H]65)C2)C1` [^3H-vinblastine, vinblastine], on PgP (setting [1]), the “apical to basolateral transport” value is recorded as “strongly increased” and the “basolateral to apical transport” value is recorded as “strongly decreased”. In addition, the “efflux transporter substrate status” value on PgP (conclusion from transwell transport with and without verapamil) was “substrate of PgP”.
